Experimental data from patent US12624009B2, “Hydrate of VEGFR inhibitor, crystal form thereof and preparation method therefor” (CHENGDU EASTON BIOPHARMACEUTICALS CO., LTD, priority 2023, dated 2026).

Legend:
Type in all cases: physicochemical
[1] = Stability of crystal forms suspended and stirred in water, solids characterised by XRD; settings: for crystal form stability in water: 25° C. and 37° C., 5 h and 24 h, compared with crystal forms I, II, III, VII, IV, VIII and C
Source text: The solids were filtered and subjected to XRD characterization.

[2] = Storage stability investigation of crystal forms of fruquintinib (crystal form after storage); settings: for crystal form stability under the conditions investigated: 25° C./RH60% and 40° C./RH75%, storage up to 6 months (FIG. 4, 5A, 5B)
[3] = Grinding in planetary ball mill, XRD compared with simulated single-crystal pattern; settings: 60 HZ, about 30 s
Source text: The XRD pattern after grinding was substantially consistent with FIG. 1B.

Structure (SMILES) | Suspending and stirring for 5 h Crystal form ([1]; 25° C.) | Suspending and stirring for 24 h Crystal form ([1]; 25° C.) | Suspending and stirring for 5 h Crystal form ([1]; 37° C.) | Suspending and stirring for 24 h Crystal form ([1]; 37° C.) | crystal form stability under the conditions investigated [2] | Crystal form after storage ([2]; 25° C./RH60%, 6 months) | Crystal form after storage ([2]; 40° C./RH75%, 6 months) | Crystal form after storage ([2]; 25° C./RH60%, 2 months) | Crystal form after storage ([2]; 40° C./RH75%, 2 months) | crystal form stability in water [1] | crystal form stability in water ([1]; listed as crystal form α of fruquintinib) | polymorphic transition after grinding [3]
CNC(=O)c1c(C)oc2cc(Oc3ncnc4cc(OC)c(OC)cc34)ccc12 [Crystal form C, 6-(6,7-dimethoxyquinazolin-4-yl-oxy)-N,2-dimethylbenzofuran-3-carboxamide] | Crystal form α | Crystal form α | Crystal form α | Crystal form α | – | – | – | – | – | – | – | –
CNC(=O)c1c(C)oc2cc(Oc3ncnc4cc(OC)c(OC)cc34)ccc12 [Crystal form VIII, 6-(6,7-dimethoxyquinazolin-4-yl-oxy)-N,2-dimethylbenzofuran-3-carboxamide] | Crystal form α | Crystal form α | Crystal form α | Crystal form α | – | – | – | – | – | – | – | –
CNC(=O)c1c(C)oc2cc(Oc3ncnc4cc(OC)c(OC)cc34)ccc12 [Crystal form II, 6-(6,7-dimethoxyquinazolin-4-yl-oxy)-N,2-dimethylbenzofuran-3-carboxamide] | Crystal form α | Crystal form α | Crystal form α | Crystal form α | – | – | – | – | – | – | – | –
CNC(=O)c1c(C)oc2cc(Oc3ncnc4cc(OC)c(OC)cc34)ccc12 [Crystal form α (after grinding), 6-(6,7-dimethoxyquinazolin-4-yl-oxy)-N,2-dimethylbenzofuran-3-carboxamide] | – | – | – | – | good crystal form stability | Crystal form α | Crystal form α | – | – | – | – | –
CNC(=O)c1c(C)oc2cc(Oc3ncnc4cc(OC)c(OC)cc34)ccc12 [Crystal form α + crystal form I, 6-(6,7-dimethoxyquinazolin-4-yl-oxy)-N,2-dimethylbenzofuran-3-carboxamide] | Crystal form α | Crystal form α | Crystal form α | Crystal form α | – | – | – | – | – | – | – | –
CNC(=O)c1c(C)oc2cc(Oc3ncnc4cc(OC)c(OC)cc34)ccc12 [Crystal form III, 6-(6,7-dimethoxyquinazolin-4-yl-oxy)-N,2-dimethylbenzofuran-3-carboxamide] | Crystal form α | Crystal form α | Crystal form α | Crystal form α | – | – | – | – | – | – | – | –
CNC(=O)c1c(C)oc2cc(Oc3ncnc4cc(OC)c(OC)cc34)ccc12 [Crystal form IV, 6-(6,7-dimethoxyquinazolin-4-yl-oxy)-N,2-dimethylbenzofuran-3-carboxamide] | Crystal form α | Crystal form α | Crystal form α | Crystal form α | – | – | – | – | – | – | – | –
CNC(=O)c1c(C)oc2cc(Oc3ncnc4cc(OC)c(OC)cc34)ccc12 [Crystal form α, 6-(6,7-dimethoxyquinazolin-4-yl-oxy)-N,2-dimethylbenzofuran-3-carboxamide] | Crystal form α | Crystal form α | Crystal form α | Crystal form α | good crystal form stability | Crystal form α | Crystal form α | Crystal form α | Crystal form α | good stability in water | better crystal form stability | did not undergo polymorphic transition
CNC(=O)c1c(C)oc2cc(Oc3ncnc4cc(OC)c(OC)cc34)ccc12 [Crystal form VII, 6-(6,7-dimethoxyquinazolin-4-yl-oxy)-N,2-dimethylbenzofuran-3-carboxamide] | Crystal form α | Crystal form α | Crystal form α | Crystal form α | – | – | – | – | – | – | – | –
CNC(=O)c1c(C)oc2cc(Oc3ncnc4cc(OC)c(OC)cc34)ccc12 [Crystal form I, 6-(6,7-dimethoxyquinazolin-4-yl-oxy)-N,2-dimethylbenzofuran-3-carboxamide] | Crystal form I | – | Crystal form I | – | – | – | – | – | – | – | – | –
